Results reported in US20190203240A1, “METHODS FOR THE PRODUCTION OF RHAMNOSYLATED FLAVONOIDS” (Universitaet Hamburg, priority 2016, published 2019).
Values joined by “and” are separate entries in the source; they are usually repeats but may differ in a detail not shown here. Identical values can stand only once.

How the values were obtained:
[1] = test system: normal human epidermal keratinocytes (NHEK); assay: Cytotoxicity on NHEK monolayer (MTT reduction assay and morphological observation); type: cell-based; conditions: for Viability (%) Mean / Viability (%): MTT; for Viability (%): single values; for Morph. obs.: microscope
Experimental: To determine the cytotoxicity of flavonoid-5-O-α-L-rhamnosides tests were performed versus their aglycon derivatives in cell monolayer cultures. For this purpose concentrations ranging from 1 μM to 250 μM were chosen. The viability of normal human epidermal keratinocytes (NHEK) was twice evaluated by a MTT reduction assay and morphological observation with a microscope. NHEK were grown at 37° C. and 5% CO2 aeration in Keratinocyte-SFM medium supplemented with epidermal growth factor (EGF) at 0.25 ng/mL, pituitary extract (PE) at 25 μg/mL and gentamycin (25 μg/mL) for 24 h and were used at the 3rd passage. For cytotoxicity testing, pre-incubated NHEK were given fresh culture medium containing a specific concentration of test compound and incubated for 24 h. After a medium change at same test concentration cells were incubated a further 24 h until viability was determined. Test results are given in Table B2 and illustrated in FIG. 10.

PGE2 = assay: Anti-inflammatory potential: secreted PGE2 in stimulated NHEK (ELISA); type: cell-based, human; conditions: PMA - 1 μg/ml, reference at 10^−6M, cytokine type not given; for Cytokine: single values
Experimental: NHEK were pre-incubated for 24 h with the test compounds. The medium was replaced with the NHEK culture medium containing the inflammatory inducers (PMA or Poly I:C) and incubated for another 24 hours. Positive and negative controls ran in parallel. At the endpoint the culture supernatants were quantified of secreted IL-8, PGE2 and TNF-α, by means of ELISA.

procollagen I = assay: Stimulation of procollagen I synthesis in NHDF (ELISA); type: cell-based, human; conditions: 72 hours, 20 μg/ml
Experimental: (§1) Tests were performed with normal human dermal fibroblast cultures at the 8th passage. Cells were grown in DMEM supplemented with glutamine at 2 mM, penicillin at 50 U/mL and streptomycin (50 μg/mL) and 10% of fetal calf serum (FCS) at 37° C. in a 5% CO2 atmosphere.
(§2) Fibroblasts were cultured for 24 hours before the cells were incubated with the test compounds for further 72 hours. After the incubation the culture supernatants were collected in order to measure the released quantities of procollagen I, VEGF, and fibronectin by means of ELISA. Reference test compounds were vitamin C (procollagen I), PMA (VEGF), and TGF-β (fibronectin).

[2] = test system: hydrogen peroxide (DHR) in NHEK cells; assay: Protection against UV-induced H2O2 stress in NHEK (DHR probe, flow cytometry); type: cell-based, human; conditions: 180 mJ/cm^2 UVB (2839 mJ/cm^2 UVA), 100 μM
Experimental: (§3) Pre-incubated NHEK were incubated with the test compound for 24 h. Then the specific fluorescence probe for the measurement of hydrogen peroxide (DHR) or lipid peroxides (C11-fluor) was added and incubated for 45 min. Irradiation occurred with in H2O2 determination UVB at 180 mJ/cm^2 (+UVA at 2839 mJ/cm^2) or UVB at 240 mJ/cm^2 (+UVA at 3538 mJ/cm^2) in lipid peroxide, respectively, using a SOL500 Sun Simulator lamp. After irradiation the cells were post-incubated for 30 min before flow-cytometry analysis.

[3] = test system: matrix metallopeptidase 1 (MMP-1); assay: MMP-1 release in UVA-irradiated NHDF (ELISA); type: cell-based, human; conditions: NHDF irradiated 15 J/cm^2 UVA, 10^−7M
Experimental: as §1
Human fibroblasts were cultured for 24 hours before the cells were pre-incubated with the test or reference compounds (dexamethasone) for another 24 hours. The medium was replaced by the irradiation medium (EBSS, CaCl2) 0.264 g/L, MgClSO4 0.2 g/L) containing the test compounds) and cells were irradiated with UVA (15 J/cm^2). The irradiation medium was replaced by culture medium including again the test compounds incubated for 48 hours. After incubation the quantity of matrix metallopeptidase 1 (MMP-1) in the culture supernatant was measured using an ELISA kit.

[4] = test system: lipid peroxides (C11-fluor) in NHEK cells; assay: Protection against UV-induced lipid peroxide in NHEK (C11-fluor probe, flow cytometry); type: cell-based, human; conditions: 240 mJ/cm^2 UVB (3538 mJ/cm^2 UVA), 50 μM
Experimental: as §3

fibronectin = assay: Stimulation of fibronectin synthesis in NHDF (ELISA); type: cell-based, human; conditions: 72 h incubation, 10 ng/ml
Experimental: as §1, §2

VEGF = assay: Stimulation of VEGF release in NHDF (ELISA); type: cell-based, human; conditions: 72 hours, 1 μg/ml
Experimental: as §1, §2

Question: With `COc1ccc(C2CC(=O)c3c(O)cc(O)cc3O2)cc1O` (stereo not shown) [Hesperetin, 3′,5,7-Trihydroxy-4′-methoxyflavanone] as the compound, how does the “Viability (%) Mean” value ([1]; 1 μM) read?
Answer: 105%

Question: What about the “Viability (%)” value ([1]; 1 μM) of the same compound?
Answer: 103% and 106%

Question: What about the “Viability (%) Mean” value ([1]; 2.5 μM) of the same compound?
Answer: 103%

Question: And the “Viability (%)” value ([1]; 2.5 μM)?
Answer: 98% and 109%

Question: What about the “Viability (%) Mean” value ([1]; 5 μM) of the same compound?
Answer: 106%

Question: What about the “Viability (%)” value ([1]; 5 μM) of the same compound?
Answer: 107% and 106%

Question: And the “Viability (%) Mean” value ([1]; 10 μM)?
Answer: 103%

Question: And the “Viability (%)” value ([1]; 10 μM)?
Answer: 101% and 105%

Question: What about the “Viability (%) Mean” value ([1]; 25 μM) of the same compound?
Answer: 108%

Question: And the “Viability (%)” value ([1]; 25 μM)?
Answer: 106% and 109%

Question: And the “Viability (%) Mean” value ([1]; 50 μM)?
Answer: 106%

Question: What about the “Viability (%)” value ([1]; 50 μM) of the same compound?
Answer: 106%

Question: What about the “Viability (%) Mean” value ([1]; 100 μM) of the same compound?
Answer: 99%

Question: And the “Viability (%)” value ([1]; 100 μM)?
Answer: 98% and 100%

Question: What about the “Viability (%) Mean” value ([1]; 250 μM) of the same compound?
Answer: 57%

Question: What about the “Viability (%) Mean” value ([1]; 250 μM, listed as hesperetin) of the same compound?
Answer: about 50%

Question: And the “Viability (%)” value ([1]; 250 μM)?
Answer: 54% and 59%

Question: `COc1ccc2c(c1)c(CC(=O)O)c(C)n2C(=O)c1ccc(Cl)cc1` [Indomethacin] was tested. Which “% stim. control” value (PGE2) did it give?
Answer: 2%

Question: What about the “Cytokine [pg/mL] Mean” value (PGE2) of the same compound?
Answer: 39 pg/mL

Question: What about the “Cytokine” value (PGE2) of the same compound?
Answer: 39 pg/mL

Question: How did the “Procollagen I % Control” value (procollagen I) turn out when `O=C1O[C@H]([C@@H](O)CO)C(O)=C1O` [Vitamin C] was run?
Answer: 316%

Question: And the “Procollagen I % Stimulation” value (procollagen I)?
Answer: 216%

Question: What about the “Procollagen I Mean” value (procollagen I) of the same compound?
Answer: 5272 ng/mL

Question: What about the “Procollagen I” value (procollagen I; single values) of the same compound?
Answer: 4739 ng/mL and 5854 ng/mL and 5225 ng/mL

Question: For `COc1ccc(O)c(C(C)(C)C)c1` [BHA], which “H2O2 % irradiated control” value [2] is on record?
Answer: 42%

Question: And the “H2O2 (AU) Mean” value [2]?
Answer: 776 AU

Question: And the “H2O2 Protection %” value [2]?
Answer: 70%

Question: And the “H2O2 (AU) (DHR GMFI)” value ([2]; single values)?
Answer: 740 AU and 834 AU and 754 AU

Question: What does the source list for `C[C@@H]1C[C@H]2[C@@H]3CCC4=CC(=O)C=C[C@]4(C)[C@@]3(F)[C@@H](O)C[C@]2(C)[C@@]1(O)C(=O)CO` [Dexamethasone, reference compound]?
Answer: % stim. control (PGE2): 92%; Cytokine [pg/mL] Mean (PGE2): 1437 pg/mL; Cytokine (PGE2): 1318 pg/mL and 1556 pg/mL; MMP-1 % Irradiated control [3]: 4%; MMP-1 % Protection [3]: 150%; MMP-1 (ng/ml), single replicates [3]: 2.5 ng/mL and 3.1 ng/mL and 3.2 ng/mL; Mean MMP-1 [3]: 2.9 ng/mL

Question: Which results are given for `Cc1cc(C(C)(C)C)c(O)c(C(C)(C)C)c1` [BHT]?
Answer: C11-fluor (AU) Mean (1/GMFI) [4]: 3.3E−04 AU; lipid peroxide % Irradiated control [4]: 72%; lipid peroxide Protection % [4]: 37%; C11-fluor (AU) 1/GMFI ([4]; single values): 3.2E−04 AU and 3.3E−04 AU and 3.5E−04 AU; C11-fluor (AU) GMFI ([4]; single values): 3139 AU and 3047 AU and 2877 AU

Question: Which results are given for TGF-β [listing 1 of 2 here]?
Answer: Fibronectin % Control (fibronectin): 181%; Fibronectin % Stimulation (fibronectin): 81%; Fibronectin (ng/ml), single replicates (fibronectin): 10870 ng/mL

Question: For TGF-β [listing 2 of 2 here], which “Fibronectin (ng/ml), single replicates” value (fibronectin) is on record?
Answer: 11178 ng/mL and 11128 ng/mL

Question: What does the source list for `CCCCCCCCCCCCCC(=O)O[C@@H]1[C@@H](C)[C@@]2(O)[C@@H](C=C(CO)C[C@]3(O)C(=O)C(C)=C[C@@H]23)[C@@H]2C(C)(C)[C@]12OC(C)=O` [PMA]?
Answer: Mean VEGF (VEGF): 148 pg/mL; VEGF % Control (VEGF): 205%; VEGF % Stimulation (VEGF): 105%; VEGF (VEGF; single values): 150 pg/mL and 143 pg/mL

Question: With `O=C1CC(c2ccc(O)cc2)Oc2cc(O)cc(O)c21` (stereo not shown) [Naringenin, 4′,5,7-Trihydroxyflavanone] as the compound, how does the “Viability (%) Mean” value ([1]; 1 μM) read?
Answer: 95%

Question: And the “Viability (%)” value ([1]; 1 μM)?
Answer: 96% and 95%

Question: What about the “Viability (%) Mean” value ([1]; 2.5 μM) of the same compound?
Answer: 93%

Question: What about the “Viability (%)” value ([1]; 2.5 μM) of the same compound?
Answer: 95% and 92%

Question: What about the “Viability (%) Mean” value ([1]; 5 μM) of the same compound?
Answer: 92%

Question: And the “Viability (%)” value ([1]; 5 μM)?
Answer: 93% and 91%

Question: And the “Viability (%) Mean” value ([1]; 10 μM)?
Answer: 95%

Question: And the “Viability (%)” value ([1]; 10 μM)?
Answer: 95%

Question: And the “Viability (%) Mean” value ([1]; 25 μM)?
Answer: 92%

Question: And the “Viability (%)” value ([1]; 25 μM)?
Answer: 89% and 94%

Question: What about the “Viability (%) Mean” value ([1]; 50 μM) of the same compound?
Answer: 89%

Question: And the “Viability (%)” value ([1]; 50 μM)?
Answer: 85% and 94%

Question: And the “Viability (%) Mean” value ([1]; 100 μM)?
Answer: 75%

Question: What about the “Viability (%)” value ([1]; 100 μM) of the same compound?
Answer: 76% and 74%

Question: What about the “Viability (%) Mean” value ([1]; 250 μM) of the same compound?
Answer: 47%

Question: And the “Viability (%) Mean” value ([1]; 250 μM, listed as naringenin)?
Answer: about 50%

Question: What about the “Viability (%)” value ([1]; 250 μM) of the same compound?
Answer: 48% and 47%

Question: And the Morph. obs. ([1]; 100 μM)?
Answer: +/−,*

Question: What about the Morph. obs. ([1]; 250 μM) of the same compound?
Answer: +/−,*
